This assay deals with T1, VOR complex (VAP-A, ORP3, Rab7); Rab7 binding to ORP3 (Homo sapiens, UniProt Q9H4L5).
T1 construct: gene OSBPL3; endogenous full-length proteins in HeLa detergent lysate, ORP3 immunoisolated with antibody D-12; with Ras-related protein Rab-7a; Vesicle-associated membrane protein-associated protein A
T1 sequence (Q9H4L5 1-887): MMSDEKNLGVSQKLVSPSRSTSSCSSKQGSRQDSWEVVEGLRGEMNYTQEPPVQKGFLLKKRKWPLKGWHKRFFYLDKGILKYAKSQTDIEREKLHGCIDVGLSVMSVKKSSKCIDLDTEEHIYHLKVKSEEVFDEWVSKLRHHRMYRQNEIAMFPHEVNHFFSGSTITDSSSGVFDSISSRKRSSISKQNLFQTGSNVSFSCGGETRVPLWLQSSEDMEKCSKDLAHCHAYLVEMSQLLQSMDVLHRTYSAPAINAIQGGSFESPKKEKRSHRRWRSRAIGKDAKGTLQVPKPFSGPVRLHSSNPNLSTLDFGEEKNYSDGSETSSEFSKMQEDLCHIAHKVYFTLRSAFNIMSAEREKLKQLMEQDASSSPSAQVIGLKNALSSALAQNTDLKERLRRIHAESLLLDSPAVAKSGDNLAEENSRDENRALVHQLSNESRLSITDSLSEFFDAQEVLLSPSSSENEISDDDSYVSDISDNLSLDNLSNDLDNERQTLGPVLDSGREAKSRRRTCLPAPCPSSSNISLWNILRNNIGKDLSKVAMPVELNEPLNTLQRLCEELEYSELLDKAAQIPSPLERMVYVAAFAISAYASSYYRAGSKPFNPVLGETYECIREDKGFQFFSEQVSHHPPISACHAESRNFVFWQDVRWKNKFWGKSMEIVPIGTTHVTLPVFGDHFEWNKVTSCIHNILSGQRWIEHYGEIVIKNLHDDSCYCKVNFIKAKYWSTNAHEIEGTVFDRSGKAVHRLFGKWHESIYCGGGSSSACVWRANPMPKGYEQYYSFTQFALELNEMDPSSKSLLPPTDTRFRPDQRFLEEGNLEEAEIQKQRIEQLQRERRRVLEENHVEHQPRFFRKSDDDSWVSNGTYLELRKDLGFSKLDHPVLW
T1 sequence (Q9P0L0 2-249 partner): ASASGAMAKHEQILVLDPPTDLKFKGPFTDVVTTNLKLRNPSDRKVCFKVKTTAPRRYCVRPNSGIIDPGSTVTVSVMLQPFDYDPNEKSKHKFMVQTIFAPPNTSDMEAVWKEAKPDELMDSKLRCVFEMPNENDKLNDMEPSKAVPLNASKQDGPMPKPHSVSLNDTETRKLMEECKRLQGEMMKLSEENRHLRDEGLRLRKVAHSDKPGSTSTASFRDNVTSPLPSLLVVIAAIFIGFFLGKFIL
The assay can be described thus: ORP3 immunoisolation from drug-treated HeLa detergent lysate, Rab7/ORP3 immunoblot ratio, linear regression. The format is biochemical. The note with it: inhibition of Rab7 binding to ORP3 (VAP-A/ORP3); lysate with 1-10 μM compound, 30 min on ice; direct site on ORP3 ORD only cited from earlier work.

For the compound `CCC(C)n1ncn(-c2ccc(N3CCN(c4ccc(OCC5COC(Cn6cncn6)(c6ccc(Cl)cc6Cl)O5)cc4)CC3)cc2)c1=O` (stereo not drawn) [ICZ, cis-4[4-4-4[[2-(2-4-dichlorophenyl)-2-(1H-1,2,4,triazol-1-methyl)-1,3-dioxolan-4-yl]-1-piperazinyl]phenyl]-2,4-dihydro-2-(1-methyl-propyl)-3H-1,2,4-triazol-3-one], the IC50 is 4.9 µM.

On to `CCC(C)n1ncn(-c2ccc(Cl)cc2)c1=O` (centres unmarked) [PRR851], for which the IC50 came out at 4.8 µM.
